The text below walks through data of ChEMBL document CHEMBL3085700 (J Med Chem, 2013).

Experiment [1] addresses T1, Fatty-acid amide hydrolase 1 (Homo sapiens, UniProt O00519).
T1 sequence (O00519 whole entry): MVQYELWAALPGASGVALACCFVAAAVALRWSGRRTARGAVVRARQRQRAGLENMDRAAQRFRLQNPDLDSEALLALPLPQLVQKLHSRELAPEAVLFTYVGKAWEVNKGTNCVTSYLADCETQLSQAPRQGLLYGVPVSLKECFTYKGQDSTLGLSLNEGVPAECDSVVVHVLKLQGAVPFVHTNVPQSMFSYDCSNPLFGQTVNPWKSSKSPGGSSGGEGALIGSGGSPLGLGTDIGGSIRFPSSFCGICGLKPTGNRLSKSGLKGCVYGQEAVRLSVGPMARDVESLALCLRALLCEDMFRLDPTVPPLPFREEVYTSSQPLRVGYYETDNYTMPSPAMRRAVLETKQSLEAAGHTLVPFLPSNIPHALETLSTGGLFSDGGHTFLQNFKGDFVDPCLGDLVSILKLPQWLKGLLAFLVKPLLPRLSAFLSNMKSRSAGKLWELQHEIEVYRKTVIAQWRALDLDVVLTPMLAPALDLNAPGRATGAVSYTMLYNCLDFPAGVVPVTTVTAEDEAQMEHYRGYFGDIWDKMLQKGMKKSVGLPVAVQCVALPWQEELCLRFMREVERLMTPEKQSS
The experiment can be described thus: Inhibition of human recombinant FAAH overexpressed in African green monkey COS7 cells using [3H]-anandamide as substrate preincubated for 10 mins before substrate addition measured after 10 mins by liquid scintillation counting analysis. Type of experiment: cell-based, COS-7.

Experiment [2] deals with T2, Monoglyceride lipase (Mus musculus) (UniProt O35678).
T2 sequence (whole entry): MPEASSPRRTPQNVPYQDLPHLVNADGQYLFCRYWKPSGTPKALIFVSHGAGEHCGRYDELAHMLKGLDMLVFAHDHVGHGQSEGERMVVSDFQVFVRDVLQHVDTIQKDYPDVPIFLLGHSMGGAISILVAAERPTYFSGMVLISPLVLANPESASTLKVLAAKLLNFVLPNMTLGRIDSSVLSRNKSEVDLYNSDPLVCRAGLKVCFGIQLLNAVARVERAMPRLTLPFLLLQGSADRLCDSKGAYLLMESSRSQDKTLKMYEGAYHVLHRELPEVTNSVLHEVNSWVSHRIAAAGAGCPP
The experiment can be described thus: Inhibition of TAMRA-FP-labeled MAGL in mouse brain membrane at 10 uM after 1 hr by fluorescent gel scanning assay. The class given is cell membranes.

For experiment [3], the target named is T3, Fatty-acid amide hydrolase 1 (Homo sapiens) (UniProt O00519).
T3 sequence (whole entry): T1 sequence (O00519 whole entry)
The experiment can be described thus: Inhibition of human recombinant FAAH overexpressed in African green monkey COS7 cells using [3H]-anandamide as substrate at 3 to 30 uM preincubated for 10 to 60 mins by liquid scintillation counting analysis. The class given is cell-based. Particulars: COS-7.

Experiment [4] concerns the target T4, Lysophosphatidylserine lipase ABHD12 (Mus musculus) (UniProt Q99LR1).
T4 sequence (whole entry): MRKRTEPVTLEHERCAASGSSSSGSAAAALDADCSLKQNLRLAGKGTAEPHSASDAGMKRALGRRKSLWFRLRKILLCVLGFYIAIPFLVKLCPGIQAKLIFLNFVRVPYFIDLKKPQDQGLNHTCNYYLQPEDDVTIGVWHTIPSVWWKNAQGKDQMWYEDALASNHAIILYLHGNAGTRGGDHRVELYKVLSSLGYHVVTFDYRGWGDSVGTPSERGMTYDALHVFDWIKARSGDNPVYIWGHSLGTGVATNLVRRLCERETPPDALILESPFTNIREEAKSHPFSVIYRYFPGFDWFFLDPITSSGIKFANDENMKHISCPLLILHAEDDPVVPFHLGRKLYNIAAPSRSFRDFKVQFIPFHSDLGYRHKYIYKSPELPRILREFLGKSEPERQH
As to the kind of experiment: Inhibition of TAMRA-FP-labeled ABHD12 in mouse brain membrane at 10 uM after 1 hr by fluorescent gel scanning assay. Type of experiment: cell membranes.

The target in experiment [5] is T3, Fatty-acid amide hydrolase 1 (Homo sapiens). The experiment can be described thus: Reversible inhibition of human recombinant FAAH overexpressed in African green monkey COS7 cells using […] as substrate assessed as recovery of enzyme activity at 20 x IC50 preincubated for 60 mins followed by 500 fold dilution measured after 10 mins by HPLC analysis. The class given is cell-based. Particulars: COS-7.

Experiment [6] is described as follows: Selectivity ratio for human recombinant FAAH over ovine COX-1.
Experiment [7] has as its target T5, Fatty-acid amide hydrolase 1 (Mus musculus) (UniProt O08914).
T5 sequence (whole entry): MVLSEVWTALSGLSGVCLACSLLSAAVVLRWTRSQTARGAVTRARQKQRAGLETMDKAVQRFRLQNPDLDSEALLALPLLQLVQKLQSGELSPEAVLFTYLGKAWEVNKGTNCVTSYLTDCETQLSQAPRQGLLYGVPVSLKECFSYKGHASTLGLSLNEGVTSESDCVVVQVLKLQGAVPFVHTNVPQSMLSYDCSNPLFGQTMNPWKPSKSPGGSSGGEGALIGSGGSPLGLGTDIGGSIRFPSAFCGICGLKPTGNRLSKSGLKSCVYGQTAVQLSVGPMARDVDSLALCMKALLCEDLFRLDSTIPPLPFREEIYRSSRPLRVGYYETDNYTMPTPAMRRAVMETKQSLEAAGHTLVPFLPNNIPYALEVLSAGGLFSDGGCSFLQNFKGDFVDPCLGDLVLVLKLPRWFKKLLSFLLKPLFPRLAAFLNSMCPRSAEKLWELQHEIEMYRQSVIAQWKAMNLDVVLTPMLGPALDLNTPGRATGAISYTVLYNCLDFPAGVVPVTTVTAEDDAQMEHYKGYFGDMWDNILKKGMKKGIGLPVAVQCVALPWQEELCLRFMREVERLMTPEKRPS
As to the kind of experiment: Inhibition of TAMRA-FP-labeled FAAH in mouse brain membrane at 1 uM after 1 hr by fluorescent gel scanning assay. Type of experiment: cell membranes.

Experiment [8] has as its target T3, Fatty-acid amide hydrolase 1 (Homo sapiens). The experiment can be described thus: Inhibition of human recombinant FAAH overexpressed in African green monkey COS7 cells using [3H]-anandamide as substrate at 10 to 100 uM preincubated for 10 to 60 mins by liquid scintillation counting analysis. The class given is cell-based. As to conditions: COS-7.
Experiment [9] addresses Cannabinoid receptor 1 (Rattus norvegicus) (UniProt P20272). The experiment can be described thus: Agonist activity at CB1 receptor in rat cerebellar membranes up to 10 uM incubated for 10 mins prior to testing by [35S]GTPgammaS binding assay. The class given is functional, cell membranes. As to conditions: Cerebellum, Membrane. On the technique in general: Binding of GTPγS marks nucleotide exchange on a G protein.

Experiment [10] deals with T3, Fatty-acid amide hydrolase 1 (Homo sapiens). As to the kind of experiment: Noncompetitive inhibition of human recombinant FAAH overexpressed in African green monkey COS7 cells using anandamide as substrate assessed as decrease in Vmax of substrate hydrolysis preincubated for 10 mins before substrate addition measured after 10 mins by HPLC analysis. Particulars: COS-7.

Experiment [11] addresses Cannabinoid receptor 1 (Rattus norvegicus) (UniProt P20272). As to the kind of experiment: Antagonist activity at CB1 receptor in rat cerebellar membranes assessed as HU210-evoked response up to 10 uM incubated for 10 mins prior to testing by [35S]GTPgammaS binding assay. Type of experiment: functional, cell membranes. As to conditions: Cerebellum, Membrane.
For experiment [12], the target named is T3, Fatty-acid amide hydrolase 1 (Homo sapiens). As to the kind of experiment: Inhibition of human recombinant FAAH overexpressed in African green monkey COS7 cells using [3H]-anandamide as substrate at 10 to 300 uM preincubated for 10 to 60 mins by liquid scintillation counting analysis. The class given is cell-based. Particulars: COS-7.

Calls of active or inactive are those of the source. No cut-off for these calls is given here.

Sequence of Cannabinoid receptor 1 (Rattus norvegicus) (P20272 whole entry): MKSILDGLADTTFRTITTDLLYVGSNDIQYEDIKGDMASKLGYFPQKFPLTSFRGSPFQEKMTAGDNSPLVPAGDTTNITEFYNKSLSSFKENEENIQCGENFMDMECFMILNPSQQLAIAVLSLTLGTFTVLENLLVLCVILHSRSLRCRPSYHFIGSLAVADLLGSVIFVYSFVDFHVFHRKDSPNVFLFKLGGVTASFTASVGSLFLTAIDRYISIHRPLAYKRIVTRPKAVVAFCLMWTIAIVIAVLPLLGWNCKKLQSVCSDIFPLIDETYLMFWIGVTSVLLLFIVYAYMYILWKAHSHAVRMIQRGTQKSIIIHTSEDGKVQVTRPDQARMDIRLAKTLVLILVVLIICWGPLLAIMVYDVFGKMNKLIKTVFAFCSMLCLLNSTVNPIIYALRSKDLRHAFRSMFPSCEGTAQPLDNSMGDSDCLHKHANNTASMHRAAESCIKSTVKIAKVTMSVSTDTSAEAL

With `COc1nn([C@@H](C)c2ccc(CC(C)C)cc2)c(=O)o1`, the IC50 in experiment [1] (read-out: IC50) is 11 nM; in experiment [1] (read-out: pIC50 (converted)), 11.5 nM. For the same compound, the inhibition entry in experiment [2] and in experiment [4] was “inactive” throughout. Moreover, the inhibition result in [3], in [5], in experiment [7], in experiment [8] and in [12] was “Active” each time. Besides, the Selectivity ratio in experiment [6] is above 900. Moreover, the outcome in [9] and in experiment [11] was inactive. Further, in [10], the inhibition result was “Dose-dependent effect”.
